The text below walks through data of US7572606B1 (Nereus Pharmaceuticals, Inc., priority 2005, dated 2009).

Entries after “also recorded” stand apart in the source; their conditions may differ. Read-outs that look alike come from different tables or passages of the source.

Data set [1] has as its system B16-F10. The experiment in a line: Cell growth inhibition, resazurin, 48 h. In kind it is cell-based, mouse. As to conditions: B16-F10, 48 h drug exposure. The method, then:
RPMI 8226 (CCL-155), HT-29 (HTB-38), and B16-F10 (CRL-6475) cells were purchased from ATCC. RPMI 8226 cells were maintained in RPMI 1640 media supplemented with 10% (v/v) FBS, 2 mM L-glutamine, 1 mM sodium pyruvate and Penicillin/Streptomycin at 100 IU/ml and 100 μg/ml, respectively. HT-29 cells were maintained in McCoys 5A supplemented with 10% (v/v) FBS, 2 mM L-glutamine, 1 mM sodium pyruvate, 1% (v/v) non-essential amino acids, 10 mM HEPES and Penicillin/Streptomycin at 100 IU/ml and 100 μg/ml, respectively. B16-F10 cells were maintained in DMEM supplemented with 10% (v/v) FBS, 2 mM L-glutamine, 10 mM HEPES and Penicillin/Streptomycin at 100 IU/ml and 100 μg/ml, respectively.
RPMI 8226 cells were seeded at 2×10^4 cells/well in 90 μl RPMI media containing 10% (v/v) FBS or 1% (v/v) FBS into 96 well black-walled, clear-bottom tissue culture plates. […] Formulae II-16, II-17 and Formula II-18 were serially diluted in media containing 1% or 10% FBS and added in triplicate to the test wells. […] The final concentration of Formula II-18 ranged from 2 μM to 630 pM.
On the technique in general: The colour change of resazurin is a common sign of viable cells or microbes.

Data set [2] relates to DU 145. The experiment in a line: Cell growth inhibition, resazurin, 48 h. In kind it is cell-based, human.
The subject of data set [3] is HEK293. Nature of the data set: Cell growth inhibition, resazurin, 48 h. In kind it is cell-based. As to conditions: Homo sapiens; HEK293, 48 h drug exposure.
The test system of data set [4] is CCD-27sk. Nature of the data set: Cytotoxic activity, 48 h, normal fibroblasts. Format: cell-based. As to conditions: CCD-27sk normal human fibroblasts.
The subject of data set [5] is NF-κB/Luc 293 cells. The experiment in a line: Viability of reporter cells, resazurin, 24 hr. As to conditions: at the EC50 concentration of the luciferase assay. Format: cell-based, human.
Data set [6] has as its system p21 and p27 in HEK293 cells and HEK293 NF-κB/Luciferase reporter clone. The experiment in a line: Western blot of cell cycle regulatory proteins. In kind it is cell-based, human. Particulars: various concentrations, preliminary results. The source says:
The ubiquitin-proteasome pathway is an essential proteolytic system involved in cell cycle control by regulating the degradation of cyclins and cyclin-dependent kinase (Cdk) inhibitors such as p21 and p27. Pagano, et al., Science 269:682 (1995), Kisselev, et al., Chem Biol 8:739 (2001), King, et al., Science 274:1652 (1996). Furthermore, p21 and p27 protein levels are increased in the presence of proteasome inhibitors. Fukuchi, et al., Biochim Biophys Acta 1451:206 (1999), Takeuchi, et al., Jpn J Cancer Res 93:774 (2002).
The Western blots presented in FIG. 33 were reprobed using antibodies against p21 and p27 to determine the endogenous level of each protein and anti-Tubulin antibody was used to confirm equal loading of protein.
In general terms: In western blotting, separated proteins are transferred to a membrane and probed.

Data set [7] concerns LeTx-induced cytotoxicity of RAW264.7 cells. The experiment in a line: cells. Format: cell-based, murine.
The subject of data set [8] is PARP and Pro-Caspase 3 in RPMI 8226 cells. Nature of the data set: PARP and Pro-Caspase 3 cleavage, western blot. Format: cell-based, human. As to conditions: 100 nM for 0, 8 or 24 hours; varying concentrations for 8 hours. On the procedure:
Total protein lysates were made and 20 μg of the lysates were then resolved under reducing/denaturing conditions and blotted onto nitrocellulose. The blots were then probed with anti-PARP or anti-caspase 3 antibodies followed by stripping and reprobing with an anti-actin antibody.
25 μg of the lysates were then resolved under reducing/denaturing conditions and blotted onto nitrocellulose. The blots were then probed with anti-PARP or anti-caspase 3 antibodies followed by stripping and reprobing with an anti-actin antibody.

The subject of data set [9] is LPS-induced plasma TNF. The experiment in a line: Inhibition of in vivo LPS-induced TNF. Further details: species or system male Swiss Webster mice. As to conditions: 0.125 or […] i.v., 30 minutes post-LPS (2 mg/kg i.p.). On the procedure: The following methods outline the protocol design for these studies.
Male Swiss Webster mice (12/group weighing 20-25 g) were injected with LPS (2 mg/kg) by the i.p. route. […] Ninety minutes after LPS injection, the mice were anesthetized with Isoflurane and bled by cardiac puncture to obtain plasma. Remaining blood pellet was then resuspended in 500 μL of PBS to wash away residual serum proteins and centrifuged again. Supernatant was removed and blood pellet frozen for analysis of proteasome inhibition in packed whole blood lysate.
Animals were dosed i.v. with 4 ml/kg. A vehicle control solution was also prepared by making the same 1:160 dilution with 100% DMSO into 10% solutol solution giving a final concentration of 9.375% solutol in water and 0.625% DMSO. Measurements of plasma TNF were performed using the Biosource mTNF Cytoset kit (Biosource Intl., Camarillo, Calif.; catalog # CMC3014) according to manufacturer's instructions. Samples were diluted 1:60 for the assay.

The subject of data set [10] is VEGF-induced migration of multiple myeloma cells. The experiment in a line: Transwell migration assay. Format: cell-based. On the procedure: The compounds disclosed herein inhibit angiogenesis. […] The other compounds disclosed herein are tested in a transwell migration assay and inhibit migration.
Data set [11] deals with MM.1R and Dox-40 cell lines, patient-derived multiple myeloma cells.
In data set [12] the target is caspase-like (PGPH) activity of rabbit muscle 20S proteasome (Oryctolagus cuniculus, UniProt A0A5F9DQW2). Nature of the data set: In vitro inhibition of 20S proteasome, Z-LLE-AMC. Particulars: read-out: EC50 Caspase-like (PGPH); purified rabbit 20S proteasome, Z-LLE-AMC.
Sequence of caspase-like (PGPH) activity of rabbit muscle 20S proteasome (A0A5F9DQW2 1-212): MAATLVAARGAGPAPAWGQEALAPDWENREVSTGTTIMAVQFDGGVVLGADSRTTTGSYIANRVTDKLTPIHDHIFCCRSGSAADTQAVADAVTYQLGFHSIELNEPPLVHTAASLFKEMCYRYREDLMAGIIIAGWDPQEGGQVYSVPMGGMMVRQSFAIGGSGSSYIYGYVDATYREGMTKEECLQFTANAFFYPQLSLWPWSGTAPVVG
Data set [13] addresses T1, chymotrypsin-like activity of rabbit muscle 20S proteasome (Oryctolagus cuniculus, UniProt G1T4Q9).
T1 sequence (G1T4Q9 1-263): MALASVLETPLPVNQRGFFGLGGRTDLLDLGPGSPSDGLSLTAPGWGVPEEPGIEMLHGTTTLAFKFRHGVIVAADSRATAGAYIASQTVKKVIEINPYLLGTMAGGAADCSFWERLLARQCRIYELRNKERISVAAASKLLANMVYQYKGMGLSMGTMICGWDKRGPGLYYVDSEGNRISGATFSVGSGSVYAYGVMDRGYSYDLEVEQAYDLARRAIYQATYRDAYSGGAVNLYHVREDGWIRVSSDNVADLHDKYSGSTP
The experiment in a line: In vitro inhibition of 20S proteasome, suc-LLVY-AMC.

The term EC50 denotes the concentration that produces a half-maximal response. For `C[C@@]12OC(=O)[C@]1([C@@H](O)[C@@H]1C=CCCC1)NC(=O)[C@@H]2CCCl` [Formula II-16, Salinosporamide A], the EC50 in [1] stood at 47 ± 20 nM; in data set [1] (Mus musculus, B16-F10, 48 h), 33 nM; in data set [2] (Homo sapiens, DU 145, 48 h drug exposure), 37 ± 10 nM; in [3] it was 47 nM; in data set [4] it was 196 nM; in data set [7], 3.6 nM. This molecule had an EC50 in data set [7] (Mus musculus, RAW264.7) of less than 4 nM. Moreover, the “% cytotoxicity” value in data set [2] (DU 145) came out at 75 ± 4%. Besides, the cell viability result in data set [5] was “did not affect cell viability”. Further, in data set [6], the “p21 and p27 protein levels” value is “p21 and p27 protein levels were elevated”. The cell-viability in [7] came to 82%. Further, the “increase in the viability of LeTx-treated cells compared to LeTx treatment alone” value in [7] is recorded as 10 fold. For the same molecule, the “cleavage of PARP and Pro-Caspase 3” value in [8] was “cleavage of PARP and Pro-caspase 3 in a time-dependent manner; also recorded: dose-dependent cleavage of both PARP and Pro-Caspase 3”. Also, the “reduction of LPS-induced plasma TNF levels” value in data set [9] is “approximately 65%”. In addition, the “VEGF-induced migration of multiple myeloma cells” value in [10] is on record as “blocked vascular endothelial growth-factor (VEGF)-induced migration of multiple myeloma cells”. The “activity against drug resistant multiple myeloma” value in data set [11] is “active against MM.1R and Doxorubicin-resistant Dox-40 cell lines”.

`C[C@H]1C(=O)N[C@@]2([C@@H](O)[C@@H]3C=CCCC3)C(=O)O[C@@]12C` [Formula II-20]: the EC50 in [12] was 1420 nM; in data set [13], 2 to 11 nM; in [13] (read-out: EC50 Chymotrypsin-like, purified rabbit 20S proteasome, suc-LLVY-AMC) it was 7.7 ± 3 nM.
